Values quoted from earlier work as cited in PMC12737022, “Evaluations of Sex Differences in Dosimetry in Rats Following Perfluorohexanesulfonamide (PFHxSA) Oral Exposure” (Toxics, 2025).

Columns and labels:
[1] = design: method as in PMID 37756184; details: bariatric surgery patients; cited from earlier work
[2] = design: method as in PMID 31078680; details: cited from earlier work; for Liver partitioning values: male rats
[3] = design: method as in PMID 40710967; details: SD rats following PFHxSA administration; cited from earlier work

Compound	Liver partitioning values [2]	Share of the PFAS detected following dosing [3]	also measured
O=C(O)C(F)(F)C(F)(F)C(F)(F)C(F)(F)C(F)(F)C(F)(F)C(F)(F)F [PFOA, perfluorooctanoic acid, reference compound]	1.5 to 10.9		Human liver/plasma partitioning Kp [1]: 0.26
O=S(=O)(O)C(F)(F)C(F)(F)C(F)(F)C(F)(F)C(F)(F)C(F)(F)C(F)(F)C(F)(F)F [PFOS, perflurooctanesulfonic acid]	1.5 to 10.9		
O=C(O)C1OC(NS(=O)(=O)C(F)(F)C(F)(F)C(F)(F)C(F)(F)C(F)(F)C(F)(F)F)C(O)C(O)C1O (stereo not drawn) [PFHxSA-glucuronide]		less than 3%	
O=S(O)C(F)(F)C(F)(F)C(F)(F)C(F)(F)C(F)(F)C(F)(F)F [perfluorohexanesulfinic acid]		less than 3%	
O=C(O)C(F)(F)C(F)(F)C(F)(F)F [PFBA]			Liver partitioning summary values ([2]; across both sexes): 0.16–0.44
